# According to patent publication US7241795B2, “Synthesis and antimicrobial activity of novel dicationic “reversed amidines”” (The University of North Carolina at Chapel Hill, priority 2000, dated 2007):
# Counter-ions that a name gives are not always drawn.
# Columns and labels:
# Candida albicans = assay: Antifungal broth macrodilution susceptibility testing (MIC/MFC), yeast; assay type: cell-based; conditions: for MIC / MFC: Candida albicans; for MIC: read-out: C. albicans MIC; for MFC: read-out: C. albicans MFC
# Aspergillus fumigatus = assay: Antifungal broth macrodilution susceptibility testing (MIC/MFC), mold; assay type: cell-based; conditions: Aspergillus fumigatus, strain 168.95; for MIC: read-out: Aspergillus fumigatus MIC; for MFC: read-out: Aspergillus fumigatus MFC
# poly dA•dT = assay: DNA thermal melting (ΔTm); assay type: binding
# d(CGCGAATTCGCG)2 = assay: DNA thermal melting (ΔTm); assay type: binding; conditions: oligo = d(CGCGAATTCGCG)2
# M. tuberculosis H37Rv = assay: Microplate Alamar Blue Assay (MABA) in BACTEC 12B medium; assay type: cell-based, Mycobacterium tuberculosis; conditions: for MIC / inhibition at 6.25 µg/mL: Mycobacterium tuberculosis, H37RV; for MIC: read-out: MTb MIC; for inhibition at 6.25 µg/mL: % Inhibition at 6.25 μg/ml, read-out: MTb % Inh
# [1] = reference strain C. albicans A39
# [2] = lowest concentration effecting ≧90% reduction of fluorescence
SMILES,melting point,MIC (Candida albicans; [1]),MIC (Aspergillus fumigatus),DNA Affinities ΔTm (AT) (poly dA•dT),DNA Affinities ΔTm (oligo) (d(CGCGAATTCGCG)2),MFC (Candida albicans; [1]),MFC (Aspergillus fumigatus),also measured
"Cc1ccc(N=Nc2ccc(-c3ccc(-c4ccc(N=Nc5ccc(C)cn5)cc4C)o3)c(C)c2)nc1 (as salt: hydrochloride) [Compound 6j, 2,5-Bis[2-methyl-4-(5-methyl-2-pyridylimino)aminophenyl]furan]",156 to 158 °C,,,,,,,
"N=C(Nc1ccc(-c2ccc(-c3ccc(NC(=N)c4ccccc4)cc3)s2)cc1)c1ccccc1 [DB 653, 2,5-Bis[4-(benzimidoyl)aminophenyl]thiophene]",,> 100 µg/mL,> 100 µg/mL,20.2,12.8,,,
"Cl.Cl.N=C(Nc1ccc(-c2ccc(-c3ccc(NC(=N)c4ccccc4)cc3)o2)cc1)c1ccccc1 [Compound 6b, 2,5-Bis[4-(benzimidoylamino)phenyl]furan Dihydrochloride]",,25 µg/mL,,28.6,15.0,50 µg/mL,,
"Cc1cc(NC(=N)c2ccccc2)ccc1-c1ccc(-c2ccc(NC(=N)c3ccccc3)cc2C)o1 [Compound 6g, 2,5-Bis[4-(benzimidoyl)amino-2-methylphenyl]furan]",,3.12 µg/mL,,24.9,7.8,6.25 µg/mL,,
"OC(Cn1cncn1)(Cn1cncn1)c1ccc(F)cc1F [Fluconazole, reference compound]",,,,,,,,"activity against C. albicans, in words (Candida albicans): fungistatic"
"c1ccc(N=Nc2ccc(-c3ccc(-c4ccc(N=Nc5ccccn5)cc4)o3)cc2)nc1 (as salt: hydrochloride) (hydrate or solvate) [Compound 6a, 2,5-Bis[4-(2-pyridylimino)aminophenyl]furan]",221 to 223 °C,,,,,,,
"Cc1ccc(C(=N)Nc2ccc(-c3ccc(-c4ccc(NC(=N)c5ccc(C)cc5)cc4)o3)cc2)cc1.Cl.Cl [Compound 6c, 2,5-Bis [4-[(4-methylbenzimidoyl)amino]phenyl]furan Dihydrochloride]",348 to 350.5 °C,> 100 µg/mL,,>28,15.4,,,MIC (M. tuberculosis H37Rv; [2]): ≤ 6.25 µg/mL
"Cl.Cl.N=C(N)Nc1ccc(-c2ccc(-c3ccc(NC(=N)N)cc3)o2)cc1 [Compound 5a, 2,5-Bis(4-guanidinophenyl)furan dihydrochloride]",,,100 µg/mL,21.6,10.8,25 µg/mL,> 100 µg/mL,"activity against C. albicans, in words (Candida albicans): fungicidal"
"COc1cc(N=Nc2ccccn2)ccc1-c1ccc(-c2ccc(N=Nc3ccccn3)cc2OC)o1 (as salt: hydrochloride) [Compound 6k, 2,5-Bis[2-methoxy-4-(2-pyridylimino)aminophenyl]furan]",196 to 197 °C,,,,,,,
N=C(N)Nc1ccc(-c2ccc(-c3ccc(NC(=N)N)cc3)s2)cc1 [DB 686],,,,,,,,"C. albicans MFC (Candida albicans; [1]): 4.17 µg/mL; C. albicans MIC (Candida albicans; [1]): 4.17 µg/mL; MTb MIC (M. tuberculosis H37Rv; H37Rv, lowest concentration effecting ≧90% reduction of fluorescence): <1 µg/mL"
"c1cc(-c2ccc(-c3ccc(N=NC4CCCCC4)cc3)o2)ccc1N=NC1CCCCC1 [Compound 6d, 2,5-Bis[4-(cyclohexylimino)aminophenyl]furan]",,> 100 µg/mL,100 µg/mL,26.7,12.8,,> 100 µg/mL,"activity against M. tuberculosis, in words (M. tuberculosis H37Rv): some activity; MIC (M. tuberculosis H37Rv; [2]): ≤ 6.25 µg/mL"
"Cl.Cl.N=C(N)Nc1ccc(-c2ccc(-c3ccc(NC(=N)N)cc3Cl)o2)c(Cl)c1 [Compound 5d, 2,5-Bis(2-chloro-4-guanidinophenyl)furan dihydrochloride]",300 to 304 °C (dec.),10 µg/mL,100 µg/mL,26.1,4.7,100 µg/mL,100 µg/mL,MIC (M. tuberculosis H37Rv; [2]): 4 µg/mL
"N=C(Nc1ccc(-c2ccc(-c3ccc(NC(=N)c4ccccc4)cc3)s2)cc1)c1ccccc1 (hydrate or solvate) [DB 653, 2,5-Bis[4-(benzimidoyl)aminophenyl]thiophene]",284 to 286 °C (dec.),,,,,,,
"Cc1cc(NC(=N)N)cc(C)c1-c1ccc(-c2c(C)cc(NC(=N)N)cc2C)o1.Cl.Cl [Compound 5f, 2,5-Bis(4-guanidino-2,6-dimethylphenyl)furan dihydrochloride]",,,,2.7,1.4,,,
"Cc1cc(NC(=N)N)ccc1-c1ccc(-c2ccc(NC(=N)N)cc2C)o1.Cl.Cl [Compound 5b, 2,5-Bis(4-guanidino-2-methylphenyl)furan dihydrochloride]",265 to 271 °C (dec.),1 to 3 µg/mL,33.4 µg/mL,17.8,6.9,2.08 µg/mL,33.4 µg/mL,"activity against C. albicans, in words (Candida albicans): fungicidal; MIC (M. tuberculosis H37Rv; [2]): 1 to 3 µg/mL"
"Br.Br.CC(=N)Nc1ccc(-c2ccc(-c3ccc(NC(C)=N)cc3)o2)cc1 [Compound 6e, 2,5-Bis[4-(acetimidoyl)aminophenyl]furan Dihydrobromide]",307 to 309.5 °C (dec.),> 100 µg/mL,100 µg/mL,15.9,6.0,,> 100 µg/mL,inhibition at 6.25 µg/mL (M. tuberculosis H37Rv): 0%
"Br.Br.CC(=N)Nc1ccc(-c2ccc(-c3ccc(NC(C)=N)cc3C)o2)c(C)c1 [Compound 6f, 2,5-Bis [4-(acetimidoyl)amino-2-methylphenyl]furan Dihydrobromide]",282.5 to 284 °C (dec.),> 100 µg/mL,> 100 µg/mL,14.5,2.4,,,inhibition at 6.25 µg/mL (M. tuberculosis H37Rv): 18%
"Cc1cc(N=Nc2ccc3ccccc3n2)ccc1-c1ccc(-c2ccc(N=Nc3ccc4ccccc4n3)cc2C)o1 (as salt: hydrochloride) [Compound 6i, 2,5-Bis[2-methyl-4-(2-quinolylimino)aminophenyl]furan]",168 to 169 °C,,,,,,,
"Clc1cc(N=Nc2ccccn2)ccc1-c1ccc(-c2ccc(N=Nc3ccccn3)cc2Cl)o1 (as salt: hydrochloride) [Compound 6l, 2,5-Bis[2-chloro-4-(2-pyridylimino)aminophenyl]furan]",189 to 190 °C,,,,,,,
"Cc1cc(N=Nc2ccccn2)cc(C)c1-c1ccc(-c2c(C)cc(N=Nc3ccccn3)cc2C)o1 [Compound 6m, 2,5-Bis[2,6-dimethyl-4-(2-pyridylimino)aminophenyl]furan]",,10 µg/mL,10 µg/mL,5.7,1.2,> 100 µg/mL,> 100 µg/mL,
"Cl.Cl.N=C(N)Nc1ccc(-c2ccc(-c3ccc(NC(=N)N)cc3C(F)(F)F)o2)c(C(F)(F)F)c1 [Compound 5e, 2,5-Bis (4-guanidino-2-trifluoromethylphenyl) furan dihydrochloride]",,10 µg/mL,100 µg/mL,5.9,,10 µg/mL,100 µg/mL,MIC (M. tuberculosis H37Rv; [2]): 8 µg/mL
"COc1cc(NC(=N)N)ccc1-c1ccc(-c2ccc(NC(=N)N)cc2OC)o1.Cl.Cl [Compound 5c, 2,5-Bis(4-guanidino-2-methoxyphenyl)furan dihydrochloride]",,10 µg/mL,100 µg/mL,15.2,2.8,100 µg/mL,100 µg/mL,MIC (M. tuberculosis H37Rv; [2]): 16 µg/mL
"N=C(N)c1ccc(-c2ccc(-c3ccc(C(=N)N)cc3)o2)cc1 [2,5-bis [4-amidinophenyl]furan, reference compound]",,,,25,11.7,,,
